Experiments:
[1] = tested on: Agrobacterium tumefaciens C58; assay: Bacterial strain response to glufosinate on minimal media; format: cell-based; design: key: +++ = Heavy Lawn Growth; ++ = Light lawn growth; + = patchy lawn growth; −− = No Growth; details: 48 hrs @ 25 C
Procedure: (§1) Selected cell lines of Escherichia coli and Agrobacterium tumefaciens were inoculated on minimal media containing incrementally increasing concentrations of Glufosinate (BASTA). The cell lines; BL21-Star (DE3), Top10, DH5α, Agrobacterium tumefaciens C58, and Agrobacterium tumefaciens LBA4404s were initially grown up on complex media. The Escherichia coli strains were grown in LB and the Agrobacterium tumefaciens strains were grown in YEP. Five microliters of bacterial culture was inoculated and dispersed evenly onto minimal media plates containing various concentrations of glufosinate. The concentrations consisted of 0 μg/ml, 250 μg/ml, 500 μg/ml, 1000 μg/ml, 2000 μg/ml, and 4000 μg/ml of BASTA. In addition, the bacterial strains were inoculated onto a plate of complex media as a control—Agrobacterium tumefaciens strains were inoculated on YEP agar plates, and Escherichia coli strains were inoculated on LB agar plates. The plates containing the Escherichia coli strains were incubated at 37° C. for 24 hours. The plates containing the Agrobacterium tumefaciens strains were incubate at 25° C. for 48 hours. […] Table 7 illustrates the capability of the various strains to grow on minimal media containing glufosinate.

[2] = tested on: Agrobacterium tumefaciens LBA4404s; assay: as above; format: cell-based; design: key: +++ = Heavy Lawn Growth; ++ = Light lawn growth; + = patchy lawn growth; −− = No Growth; details: 48 hrs @ 25 C
Procedure: as §1

[3] = tested on: Escherichia coli BL21-Star (DE3) expressing PAT (v3); assay: Complementation of cell growth on glufosinate, pDAB4434 (PAT v3); format: cell-based; design: key: −− = No Growth; +++ = Distinct Colony Growth; details: 24 hrs @28 C, 20 uM IPTG
From the text: A pET28a(+) expression plasmid containing PAT (v3) was constructed as a positive control. PAT (v3) was cloned as an NcoI-SacI fragment into corresponding restriction sites of pDAB779. Positive clones containing the PAT (v3) gene fragment were verified via restriction enzyme digestion. This construct was labeled as pDAB4434.
The plasmids, pDAB4434, pDAB4412, and an empty pET vector (control) were transformed into Escherichia coli BL21-Star (DE3) bacterial cells. Expression cultures were initiated with 10-200 freshly transformed colonies into 250 mL LB medium containing 50 μg/ml antibiotic and 75 μM IPTG (isopropyl-[…]). The cultures were grown at 28° C. for 24 hours at 180-200 rpm. Five microliters of the culture was inoculated onto a complex media control and minimal media containing incrementally increasing concentrations of glufosinate and 20 μM IPTG. The cultures were dispersed evenly over the plates and incubated at 28° C. for 24 hours.

[4] = tested on: Escherichia coli BL21-Star (DE3) with AtUbi10 promoter//PAT (3779); assay: Plant promoter driven complementation on glufosinate, plasmid 3779; format: cell-based; design: key: ++++ = Heavy Lawn Growth; +++ = Lawn Growth; ++ = Lots of Distinct Colonies; + = Scattered Colony Growth; details: 48 hrs @37 C
Procedure: Plasmid constructs in which the DSM-2 (v2) and PAT gene coding sequences were expressed, under either the viral promoters CsVMV or the plant promoter AtUbi10, were assayed for complementation on minimal media containing glufosinate. The plasmids 3778 (Rb7 MARv3//AtUbi10 promoter//DSM-2 (v2)//Atu Orf 1 3′UTR), 3779 (Rb7 MARv3//AtUbi10 promoter//PAT//Atu Orf 1 3′UTR), 3264 (CsVMV promoter//DSM-2//Atu Orf 24 3′UTR), 3037 (CsVMV promoter//PAT//Atu Orf 25/26 3′UTR), and 770 (control plasmid containing CsVMV promoter//GUS v3//Atu Orf 24 3′UTR) were transformed into Escherichia coli BL21-Star (DE3) and grown up in complex media. Five microliters of the cultures were plated on minimal media containing increasing concentrations of Glufosinate and incubated at 37° C. for 48 hours.

[5] = tested on: WT corn (5× H751× Hi II control plants); assay: Corn response to glufosinate applied postemergence; format: in vivo; details: 14DAT
From the text: The seed from the cross of T1 DSM-2 (v2)×5× H751 were planted into 4-inch pots containing Metro Mix media and at 2 leaf stage were sprayed in the track sprayer set to 187 L/ha at 560 g ai/ha glufosinate to remove nulls. At 7 DAT nulls were removed and resistant plants were sprayed in the track sprayer as above at the following rates: 0, 560, 1120, 2240, and 4480 g ai/ha glufosinate. Plants were graded at 3 and 14 DAT and compared to 5× H751× Hi II control plants.

[6] = 560 g ai/ha glufosinate postemergence
[7] = 1120 g ai/ha glufosinate postemergence
[8] = 2240 g ai/ha glufosinate postemergence
[9] = 4480 g ai/ha glufosinate postemergence

Compound: CP(=O)(O)CCC(N)C(=O)O (stereo not drawn) [glufosinate]
- bacterial growth on minimal media ([1]; 250 μg/ml BASTA): +++
- bacterial growth on minimal media ([1]; 500 μg/ml BASTA): +++
- bacterial growth on minimal media ([1]; 1000 μg/ml BASTA): +++
- bacterial growth on minimal media ([1]; 2000 μg/ml BASTA): ++
- bacterial growth on minimal media ([1]; 4000 μg/ml BASTA): −−
- bacterial growth on minimal media ([2]; 250 μg/ml BASTA): +++
- bacterial growth on minimal media ([2]; 500 μg/ml BASTA): ++
- bacterial growth on minimal media ([2]; 1000 μg/ml BASTA): ++
- bacterial growth on minimal media ([2]; 2000 μg/ml BASTA): +
- bacterial growth on minimal media ([2]; 4000 μg/ml BASTA): −−
- bacterial growth on minimal media ([3]; 250 μg/ml BASTA): +++
- bacterial growth on minimal media ([3]; 500 μg/ml BASTA): +++
- bacterial growth on minimal media ([3]; 1000 μg/ml BASTA): +++
- bacterial growth on minimal media ([3]; 2000 μg/ml BASTA): +++
- bacterial growth on minimal media ([3]; 4000 μg/ml BASTA): +++
- bacterial growth on minimal media ([4]; 250 μg/ml BASTA): ++++
- bacterial growth on minimal media ([4]; 500 μg/ml BASTA): +++
- bacterial growth on minimal media ([4]; 1000 μg/ml BASTA): +++
- bacterial growth on minimal media ([4]; 2000 μg/ml BASTA): +++
- bacterial growth on minimal media ([4]; 4000 μg/ml BASTA): +++
- % Injury Ave [5, 6]: 100%
- individuals with % Injury 20-40% [5, 6]: 0
- individuals with % Injury <20% [5, 6]: 0
- individuals with % Injury >40% [5, 6]: 4
- % Injury Ave [5, 7]: 100%
- individuals with % Injury 20-40% [5, 7]: 0
- individuals with % Injury <20% [5, 7]: 0
- individuals with % Injury >40% [5, 7]: 4
- % Injury Ave [5, 8]: 100%
- individuals with % Injury 20-40% [5, 8]: 0
- individuals with % Injury <20% [5, 8]: 0
- individuals with % Injury >40% [5, 8]: 4
- % Injury Ave [5, 9]: 100%
- individuals with % Injury 20-40% [5, 9]: 0
- individuals with % Injury <20% [5, 9]: 0
- individuals with % Injury >40% [5, 9]: 4
